Source: patent publication US11999727B2 (Tango Therapeutics, Inc., priority 2020, dated 2024)
Each block holds one molecule with its values, some of them ahead of it.

Assays:
[1] = biological target: T1, PRMT5 (Homo sapiens, UniProt O14744); assay: PRMT5 biochemical IC50 assay with SAM as cofactor; conditions: PRMT5, SAM as cofactor; read-out: SAM IC50
T1 construct: purchased Viva (custom protein)

[2] = system: HAP1 MTAP-deleted cell line; assay: SDMA in-cell western assay, HAP1 MTAP-deleted; type: cell-based; conditions: for IC50: Homo sapiens, HAP1, SDMA in-cell western, HAP1 MTAP-deleted; for MTAP intact/deleted ratio: SDMA in-cell western
Outline: (§1)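 MTAP-null vs endogenous-MTAP HAP1 isogenic cells; in-cell western SDMA readout; IC50 per line.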

[3] = system: HAP1 MTAP-deleted cell line; assay: Viability assay, MTAP-deleted cell line; type: cell-based; conditions: Homo sapiens, read-out: HAP1 MTAP deleted viability
Source text: Table 1 additionally indicates IC50 values in a viability assay for the MTAP-deleted cell line (column 10), indicating the effect of treatment with compound on cell survival.

[4] = system: HAP1 MTAP-intact cell line; assay: SDMA in-cell western assay, HAP1 MTAP-intact; type: cell-based; conditions: Homo sapiens, HAP1, SDMA in-cell western, HAP1 MTAP-intact; read-out: MTAP HAP1 intact IC50
Outline: as §1

[5] = biological target: T1, PRMT5; assay: PRMT5 biochemical IC50 assay with MTA as cofactor; conditions: PRMT5, MTA as cofactor; read-out: MTA IC50
[6] = biological target: T1, PRMT5; assay: PRMT5 biochemical IC50 assay with no cofactor; conditions: PRMT5, no cofactor
Source text: Table 1 indicates IC50 values (μM) against PRMT5 for exemplary compounds in the presence of SAM as cofactor, with no cofactor, and with MTA as cofactor, respectively (columns 4-6). […] Ki values can be calculated from the IC50 values as described in the Examples section. As detailed in the Examples section, for the assay performed in the presence of SAM, IC50=Ki×1.5 (Ki=IC50/1.5).

[7] = read-out: HAP1 MTAP deleted IC50
[8] = IC50 ratio HAP1 MTAP-intact / HAP1 MTAP-deleted
[9] = HAP1, viability assay, MTAP-deleted cell line
[10] = read-out: HAP 1 MTAP deleted IC50
[11] = HAP1, viability IC50, MTAP-deleted cell line
[12] = IC50 ratio HAP1 MTAP-intact vs HAP1 MTAP-deleted
[13] = HAP1, viability assay, HAP1 MTAP-deleted

T1 sequence (O14744 whole entry): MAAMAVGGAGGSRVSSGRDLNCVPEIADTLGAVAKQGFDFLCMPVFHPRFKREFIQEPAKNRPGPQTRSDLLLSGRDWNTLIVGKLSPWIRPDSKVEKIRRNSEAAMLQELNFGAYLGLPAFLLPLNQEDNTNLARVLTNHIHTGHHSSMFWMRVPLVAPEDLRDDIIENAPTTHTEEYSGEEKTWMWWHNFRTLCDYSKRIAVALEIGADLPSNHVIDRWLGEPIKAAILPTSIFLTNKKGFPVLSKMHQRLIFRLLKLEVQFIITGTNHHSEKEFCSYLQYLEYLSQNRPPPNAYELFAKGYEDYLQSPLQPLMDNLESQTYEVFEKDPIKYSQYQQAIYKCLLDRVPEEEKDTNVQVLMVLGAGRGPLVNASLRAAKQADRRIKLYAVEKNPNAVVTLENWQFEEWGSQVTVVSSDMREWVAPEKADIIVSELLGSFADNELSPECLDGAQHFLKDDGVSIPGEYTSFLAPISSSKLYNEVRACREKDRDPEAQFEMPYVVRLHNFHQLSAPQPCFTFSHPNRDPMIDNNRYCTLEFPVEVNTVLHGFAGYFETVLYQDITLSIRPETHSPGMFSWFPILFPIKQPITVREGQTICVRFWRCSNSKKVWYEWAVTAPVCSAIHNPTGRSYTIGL
T1 sequence (Q9BQA1 whole entry partner): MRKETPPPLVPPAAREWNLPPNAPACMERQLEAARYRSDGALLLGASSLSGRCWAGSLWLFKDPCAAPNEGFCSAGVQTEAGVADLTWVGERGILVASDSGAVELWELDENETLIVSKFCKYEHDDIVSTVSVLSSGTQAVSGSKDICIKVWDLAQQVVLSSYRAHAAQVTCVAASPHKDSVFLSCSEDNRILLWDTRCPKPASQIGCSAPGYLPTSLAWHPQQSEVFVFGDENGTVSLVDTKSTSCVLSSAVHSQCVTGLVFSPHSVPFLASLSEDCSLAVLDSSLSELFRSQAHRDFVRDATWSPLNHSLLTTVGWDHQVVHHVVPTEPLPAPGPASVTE

- IC50 [1]: 50 to 500 nM
- IC50 [2, 7]: < 100 nM
- IC50 [4]: > 1000 nM
- IC50 [5]: < 50 nM
- IC50 ([6]; read-out: No Cofactor/rel IC50): < 50 nM
Compound: Cc1ncc(NC(=O)C(=O)N2C[C@H](C)CC[C@H]2c2ccc3c(c2)CCC(=O)N3)cc1Cl (single isomer, unassigned) [Compound 726]
- MTAP intact/deleted ratio [2, 8]: A (an IC50 ratio greater than or equal to 10 fold)
- IC50 [3, 13]: < 1000 nM

- IC50 [1]: > 500 nM
- IC50 [2, 10]: > 1000 nM
- IC50 [4]: > 1000 nM
- IC50 [5]: > 500 nM
- IC50 ([6]; read-out: No Cofactor/rel IC50): > 500 nM
Compound: Cc1cc(NC(=O)C(=O)N2C[C@@H](C)CC[C@@H]2c2cccc3[nH]cnc23)cnc1N (single isomer, unassigned) [Compound 964]
- MTAP intact/deleted ratio [2, 8]: C (an IC50 ratio of less than 3 fold)
- IC50 [3, 9]: > 10000 nM

- IC50 [1]: > 500 nM
- IC50 [2, 10]: > 1000 nM
- IC50 [4]: > 1000 nM
- IC50 [5]: > 500 nM
- IC50 ([6]; read-out: No Cofactor/rel IC50): > 500 nM
Compound: Cc1cc(NC(=O)C(=O)N2C[C@@H](C)CC[C@@H]2c2cccc(S(C)(=O)=O)c2)cnc1N (single isomer, unassigned) [Compound 901]
- MTAP intact/deleted ratio [2, 8]: C (an IC50 ratio of less than 3 fold)
- IC50 [3, 9]: > 10000 nM

- IC50 [1]: > 500 nM
- IC50 [2, 10]: 100 to 1000 nM
- IC50 [4]: > 1000 nM
- IC50 [5]: > 500 nM
- IC50 ([6]; read-out: No Cofactor/rel IC50): > 500 nM
Compound: Cc1cc(NC(=O)C(=O)N2C[C@H](C)CC[C@H]2c2ccc(NS(C)(=O)=O)cc2)cnc1C (single isomer, unassigned) [Compound 630]
- MTAP intact/deleted ratio [2, 8]: A (an IC50 ratio greater than or equal to 10 fold)
- IC50 [3, 11]: > 10000 nM

- IC50 [1]: 50 to 500 nM
- IC50 [2, 10]: < 100 nM
- IC50 [4]: > 1000 nM
- IC50 [5]: < 50 nM
- IC50 ([6]; read-out: No Cofactor/ rel IC50): 50 to 500 nM
Compound: CC(=O)N1CCC(c2cccc(C3CCCCN3C(=O)C(=O)Nc3cnc(N)c(C)c3)c2)CC1 (racemic) [Compound 95, 2-(2-(3-(1-acetylpiperidin-4-yl)phenyl)piperidin-1-yl)-N-(6-amino-5-methylpyridin-3-yl)-2-oxoacetamide]
- MTAP intact/deleted ratio [2, 8]: A (an IC50 ratio greater than or equal to 10 fold)
- IC50 [3, 9]: 1000 to 10000 nM

- IC50 [1]: > 500 nM
- IC50 [2, 7]: 100 to 1000 nM
- IC50 [4]: > 1000 nM
- IC50 [5]: 50 to 500 nM
- IC50 ([6]; read-out: No Cofactor/rel IC50): 50 to 500 nM
Compound: C[C@@H]1CC[C@@H](c2ccc(F)cc2)N(C(=O)C(=O)Nc2cnc(N)c(C(F)(F)F)c2)C1 (racemic) [Compound 872, N-[6-Amino-5-(trifluoromethyl)-3-pyridyl]-2-[(2S,5R)-2-(4-fluorophenyl)-5-methyl-1-piperidyl]-2-oxo-acetamide]
- MTAP intact/deleted ratio [2, 8]: A (an IC50 ratio greater than or equal to 10 fold)
- IC50 [3, 13]: 1000 to 10000 nM

- IC50 [1]: 50 to 500 nM
- IC50 [2, 7]: < 100 nM
- IC50 [4]: > 1000 nM
- IC50 [5]: < 50 nM
- IC50 ([6]; read-out: No Cofactor/rel IC50): 50 to 500 nM
Compound: C[C@@H]1CC[C@@H](c2cccc(C3CCC3)c2)N(C(=O)C(=O)Nc2cncc(C(N)=O)c2)C1 (racemic) [Compound 261, rac-5-{2-[(2R,5S)-2-(3-Cyclobutylphenyl)-5-methylpiperidin-1-yl]-2-oxoacetamido}pyridine-3-carboxamide]
- MTAP intact/deleted ratio [2, 8]: A (an IC50 ratio greater than or equal to 10 fold)
- IC50 [3, 9]: 1000 to 10000 nM

More lines, now with the values behind:

Compound: C[C@@H]1CC[C@@H]([C@@H]2CCC(O)C2)N(C(=O)C(=O)Nc2cncc(C(N)=O)c2)C1 (mixture of isomers) [Compound 517, 5-[[2-[(2S,5R)-2-(3-Hydroxycyclopentyl)-5-methyl-1-piperidyl]-2-oxo-acetyl]amino]pyridine-3-carboxamide]
- IC50 [1]: > 500 nM
- IC50 [2, 7]: > 1000 nM
- MTAP intact/deleted ratio [2, 8]: C (an IC50 ratio of less than 3 fold)
- IC50 [3, 9]: > 10000 nM
- IC50 [4]: > 1000 nM
- IC50 [5]: 50 to 500 nM
- IC50 ([6]; read-out: No Cofactor/rel IC50): > 500 nM

Compound: C[C@H]1CC[C@H](c2cnc3[nH]ncc3c2)N(C(=O)C(=O)Nc2cncc(C(N)=O)c2)C1 (single isomer, unassigned) [Compound 574]
- IC50 [1]: 50 to 500 nM
- IC50 [2, 10]: > 1000 nM
- MTAP intact/deleted ratio [2, 8]: B (an IC50 ratio greater than or equal to 3 fold but lower than 10 fold)
- IC50 [3, 11]: > 10000 nM
- IC50 [4]: > 1000 nM
- IC50 [5]: 50 to 500 nM
- IC50 ([6]; read-out: No Cofactor/rel IC50): 50 to 500 nM

Compound: CCc1cc(NC(=O)C(=O)N2C[C@@H](C)CC[C@@H]2c2ccc3sc(-c4ccccn4)nc3c2)cnc1N [Compound 1238, N-(6-amino-5-ethylpyridin-3-yl)-2-((2R,5S)-5-methyl-2-(2-(pyridin-2-yl)benzo[d]thiazol-5-yl)piperidin-1-yl)-2-oxoacetamide]
- IC50 [1]: 50 to 500 nM
- IC50 [2, 7]: < 100 nM
- MTAP intact/deleted ratio [2, 12]: A (an IC50 ratio greater than or equal to 10 fold)
- IC50 [3, 9]: < 1000 nM
- IC50 [4]: 100 to 1000 nM
- IC50 [5]: < 50 nM
- IC50 ([6]; read-out: No Cofactor/rel IC50): 50 to 500 nM

Compound: Cc1ccc([C@H]2CC(F)(F)[C@H](C)CN2C(=O)C(=O)Nc2cnc(N)c(C)c2)cn1 (single isomer, unassigned) [Compound 973]
- IC50 [1]: 50 to 500 nM
- IC50 [2, 10]: < 100 nM
- MTAP intact/deleted ratio [2, 8]: A (an IC50 ratio greater than or equal to 10 fold)
- IC50 [3, 9]: 1000 to 10000 nM
- IC50 [4]: 100 to 1000 nM
- IC50 [5]: < 50 nM
- IC50 ([6]; read-out: No Cofactor/rel IC50): 50 to 500 nM

Compound: C[C@@H]1CC[C@@H](c2ccc(OC(F)(F)F)cc2)N(C(=O)C(=O)Nc2cncc(C(N)=O)c2)C1 (racemic) [Compound 250, rac-5-{2-[(2R,5S)-5-Methyl-2-[4-(trifluoromethoxy)phenyl]piperidin-1-yl]-2-oxoacetamido}pyridine-3-carboxamide]
- IC50 [1]: 50 to 500 nM
- IC50 [2, 7]: < 100 nM
- MTAP intact/deleted ratio [2, 8]: A (an IC50 ratio greater than or equal to 10 fold)
- IC50 [3, 9]: 1000 to 10000 nM
- IC50 [4]: > 1000 nM
- IC50 [5]: < 50 nM
- IC50 ([6]; read-out: No Cofactor/rel IC50): 50 to 500 nM

Compound: Cc1cc(NC(=O)C(=O)N2C[C@@H](C)CC[C@@H]2c2ccc3sc([C@H]4CCN(C)C(C)(C)C4)nc3c2)cnc1C (single isomer, unassigned) [Compound 1135]
- IC50 [1]: < 50 nM
- IC50 [2, 7]: < 100 nM
- MTAP intact/deleted ratio [2, 12]: A (an IC50 ratio greater than or equal to 10 fold)
- IC50 [3, 9]: < 1000 nM
- IC50 [4]: 100 to 1000 nM
- IC50 [5]: < 50 nM
- IC50 ([6]; read-out: No Cofactor/rel IC50): < 50 nM

Compound: COc1cc(NC(=O)C(=O)N2C[C@@H](C)CC[C@@H]2c2ccc3sc(C4CCN(C)CC4)nc3c2)cnc1N [Compound 1203, N-(6-amino-5-methoxypyridin-3-yl)-2-((2R,5)-5-methyl-2-(2-(1-methylpiperidin-4-yl)benzo[d]thiazol-5-yl)piperidin-1-yl)-2-oxoacetamide]
- IC50 [1]: < 50 nM
- IC50 [2, 7]: < 100 nM
- MTAP intact/deleted ratio [2, 12]: A (an IC50 ratio greater than or equal to 10 fold)
- IC50 [3, 9]: < 1000 nM
- IC50 [4]: < 100 nM
- IC50 [5]: < 50 nM
- IC50 ([6]; read-out: No Cofactor/rel IC50): < 50 nM

Compound: Cc1cc(NC(=O)C(=O)N2C[C@@H](C)CC[C@@H]2c2ccc3sc([C@@H]4CCN(C)C(C)(C)C4)nc3c2)cnc1C [Compound 1215, N-(5,6-dimethyl-3-pyridyl)-2-oxo-2-[(2R,5S)-5-methyl-2-[2-[(4R)-1,2,2-trimethyl-4-piperidyl]-1,3-benzothiazol-5-yl]-1-piperidyl]acetamide]
- IC50 [1]: < 50 nM
- IC50 [2, 7]: < 100 nM
- MTAP intact/deleted ratio [2, 12]: A (an IC50 ratio greater than or equal to 10 fold)
- IC50 [3, 9]: < 1000 nM
- IC50 [4]: 100 to 1000 nM
- IC50 [5]: < 50 nM
- IC50 ([6]; read-out: No Cofactor/rel IC50): < 50 nM

Compound: C[C@H]1CC[C@H](c2cc(F)cc(Cl)c2)N(C(=O)C(=O)Nc2cncc(C(N)=O)c2)C1 (single isomer, unassigned) [Compound 615]
- IC50 [1]: 50 to 500 nM
- IC50 [2, 10]: < 100 nM
- MTAP intact/deleted ratio [2, 8]: A (an IC50 ratio greater than or equal to 10 fold)
- IC50 [3, 11]: 1000 to 10000 nM
- IC50 [4]: > 1000 nM
- IC50 [5]: < 50 nM
- IC50 ([6]; read-out: No Cofactor/rel IC50): 50 to 500 nM

Compound: CCc1cc(NC(=O)C(=O)N2C[C@H](C)[C@H](OC)C[C@H]2c2ccc(N3CCN(C)CC3)cc2)cnc1N (single isomer, unassigned) [Compound 1089]
- IC50 [1]: 50 to 500 nM
- IC50 [2, 7]: < 100 nM
- MTAP intact/deleted ratio [2, 12]: A (an IC50 ratio greater than or equal to 10 fold)
- IC50 [3, 9]: < 1000 nM
- IC50 [4]: 100 to 1000 nM
- IC50 [5]: < 50 nM
- IC50 ([6]; read-out: No Cofactor/rel IC50): 50 to 500 nM

Compound: COc1ncc(NC(=O)C(=O)N2C[C@@H](C)CC[C@H]2c2ccc(C)cn2)cc1C(N)=O (racemic) [Compound 886, 2-Methoxy-5-[[2-[(2R,5R)-5-methyl-2-(5-methyl-2-pyridyl)-1-piperidyl]-2-oxo-acetyl]amino]pyridine-3-carboxamide]
- IC50 [1]: > 500 nM
- IC50 [2, 10]: > 1000 nM
- MTAP intact/deleted ratio [2, 8]: B (an IC50 ratio greater than or equal to 3 fold but lower than 10 fold)
- IC50 [3, 9]: > 10000 nM
- IC50 [4]: > 1000 nM
- IC50 [5]: 50 to 500 nM
- IC50 ([6]; read-out: No Cofactor/rel IC50): > 500 nM
